Assay results taken from patent EP4389746A2, “P2X3 RECEPTOR ANTAGONISTS” (Recordati Industria Chimica E Farmaceutica SPA, priority 2022, dated 2024).
pIC50: −log10 of the molar value.

Biological target: T1, human P2X3 receptor (Homo sapiens, UniProt P56373)
T1 construct: expressed in transfected cells; host or cells: CHO-K1
T1 sequence (P56373 1-397): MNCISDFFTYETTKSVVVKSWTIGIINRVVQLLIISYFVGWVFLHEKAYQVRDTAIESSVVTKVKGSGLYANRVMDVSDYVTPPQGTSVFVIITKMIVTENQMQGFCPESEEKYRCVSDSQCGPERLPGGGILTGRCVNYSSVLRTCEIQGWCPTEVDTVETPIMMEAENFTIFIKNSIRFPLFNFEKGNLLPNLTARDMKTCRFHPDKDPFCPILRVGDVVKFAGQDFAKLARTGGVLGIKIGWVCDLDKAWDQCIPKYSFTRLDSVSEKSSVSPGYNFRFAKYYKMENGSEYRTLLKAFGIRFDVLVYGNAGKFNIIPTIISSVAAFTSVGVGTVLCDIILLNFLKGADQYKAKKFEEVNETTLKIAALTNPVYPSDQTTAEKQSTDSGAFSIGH
Assay: Calcium luminescence measurement: human P2X3 receptor activity inhibition (CHO-K1 cells, photoprotein readout, FLEXSTATION)
Format: cell-based
Settings: CHO-K1 cells co-expressing human P2X3 and Ca2+ sensitive photoprotein; agonist α,β-Met-ATP; read-out: h-P2X3 IC50
Procedure: Determination of human P2X3 receptor activity inhibition
The assay for the human purinergic P2RX3 receptor has been adapted to the internal screening instrumentation using the FLEXSTATION as reader and a photoprotein as luminescent readout. The assay consists of CHO-K1 cells recombinantly co-expressing the human P2rx3 receptor and a Ca^2+ sensitive photoprotein. Cells are maintained in DMEM F-12 (1:1) mixture (LONZA cat. n° BE04-687F/U1) supplemented with 9 mL of 100 mM Sodium Pyruvate (LONZA cat. n° BE13-115E), 29 mL of 7.5% Sodium Bicarbonate (LONZA cat. n° BE17-613E), 5.5 mL of 1 M Hepes (LONZA cat. n° BE17-737E), 5 mL of 100X Penicillin/Streptomycin mixture (LONZA cat. n° DE17-602E) and 50 mL of Fetal Bovine Serum (Sigma cat. n° F7524), 1 mg/mL G418 disulfate salt (Sigma cat. n° G8168) and 5 µg/ml Puromycin dihydrochloride (Sigma cat. n° P9620). Standard propagation conditions consist of seeding in a P75 flask twice a week, recovering about 20×10^6 cells, corresponding to about 80% confluency. Cells were seeded into black-walled clear bottom 96 well plates at a density of 40000 cells/well in a complete medium. After 24 h the culture medium was replaced with 200 µL/well of coelenterazine in Tyrode's buffer (Standard Tyrode's buffer: in house solution, 130 mM NaCl, 5 mM KCl, 2 mM CaCl2, 5 mM NaHCO3, 1 mM MgCl2, 20 mM HEPES, pH 7.4). Coelenterazine was purchased from BIOSYNTH (cat. n° C-7001). 10 mM stock solution was prepared in DMSO and glutathione and stored at -20° C. The plates were incubated for 4 hours at 37°C, and injected with 10 µL/well of test compounds at 25X concentration in Tyrode's buffer. After 4 minutes a second injection of 50 µL/well of 5X α,β-Met-ATP in Tyrode's buffer (α,β-Met-ATP: from Tocris (cat. n° 3209), was dissolved at 100 mM in water and stored in aliquots at -20°C) was performed and the signal of the emitted luminescence was recorded by FLEXSTATION III (Molecular Devices). […]
The inhibition curves of the tested compounds at cloned P2X3 receptor were determined by nonlinear regression analysis using software Prism 5.0 (Graphpad, San Diego, CA). The IC50 values and pseudo-Hill slope coefficients were estimated by the program.

Molecule	pIC50
CC(C)[C@@H]1CN2C(=O)N(Cc3ccc(Cl)cc3)c3cc(N4CCOCC4)cnc3C2=N1 (single isomer, unassigned) [Example 11]	6.95
CC(C)C1CN2C(=O)N(Cc3ccc(Cl)cc3)c3cc(NC(CO)CO)cnc3C2=N1 (stereo not shown) [Example 15, 6-[(4-Chlorophenyl)methyl]-8-[(1,3-dihydroxypropan-2-yl)amino]-2-(propan-2-yl)-2,6-dihydroimidazo[1,2-c]pyrido[2,3-e]pyrimidin-5(3H)-one]	4.93
CC(C)C1CN2C(=O)N(Cc3ccc(Cl)cn3)c3cc(N4CCOCC4)cnc3C2=N1 (stereo not shown) [Example 13, 6-[(5-Chloropyridin-2-yl)methyl]-8-(morpholin-4-yl)-2-(propan-2-yl)-2,6-dihydroimidazo[1,2-c]pyrido[2,3-e]pyrimidin-5(3H)-one]	6.06
CC(C)C1CN2C(=O)N(Cc3ccc(Cl)cc3)c3cc(NC4CCOCC4)cnc3C2=N1 (stereo not shown) [Example 16, 6-[(4-Chlorophenyl)methyl]-8-[(oxan-4-yl)amino]-2-(propan-2-yl)-2,6-dihydroimidazo[1,2-c]pyrido[2,3-e]pyrimidin-5(3H)-one]	6.06
CC(C)[C@H]1CN2C(=O)N(Cc3ccc(Cl)cc3)c3cc(N4CCOCC4)cnc3C2=N1 (single isomer, unassigned) [Example 10]	5.97
CC(C)C1CN2C(=O)N(Cc3ccc(Cl)cc3)c3cc(N4CCNCC4)cnc3C2=N1 (stereo not shown) [Example 8, 6-[(4-Chlorophenyl)methyl]-8-(piperazin-1-yl)-2-(propan-2-yl)-2,6-dihydroimidazo[1,2-c]pyrido[2,3-e]pyrimidin-5(3H)-one]	5.86
CC1(C)CN2C(=O)N(Cc3ccc(Cl)cc3)c3cc(N4CCOCC4)cnc3C2=N1 [Example 2, 6-(4-Chlorobenzyl)-2,2-dimethyl-8-(morpholin-4-yl)-2,6-dihydroimidazo[1,2-c]pyrido[2,3-e]pyrimidin-5(3H)-one]	6.00
COc1cc(CN2C(=O)N3CC(C(C)(C)C)N=C3c3ncc(N4CCOCC4)cc32)cc(OC)c1 (stereo not shown) [Example 3, 2-tert-Butyl-6-(3,5-dimethoxybenzyl)-8-(morpholin-4-yl)-2,6-dihydroimidazo[1,2-c]pyrido[2,3-e]pyrimidin-5(3H)-one]	7.56
COC(C)(C)c1nnc2c3nnc(N4CCN(C(=O)OC(C)(C)C)CC4)cc3n(Cc3ccc(Cl)cc3)c(=O)n12 [Example 45, tert-Butyl 4-{6-[(4-chlorophenyl)methyl]-3-(2-methoxypropan-2-yl)-5-oxo-5,6-dihydro[1,2,4]triazolo[4',3':1,6]pyrimido[5 ,4-c]pyridazin-8-yl}piperazine-1-carboxylate]	5.59
CC(C)c1nnc2c3ncc(N4CCC(=O)CC4)cc3n(Cc3ccc(Cl)cc3)c(=O)n12 [Example 39, 6-[(4-Chlorophenyl)methyl]-8-(4-oxopiperidin-1-yl)-3-(propan-2-yl)pyrido[2,3-e][1,2,4]triazolo[4,3-c]pyrimidin-5(6H)-one]	5.90
CC(C)C1CN2C(=O)N(Cc3ccc(Cl)cc3)c3cc(N4CCC(N)CC4)cnc3C2=N1 (stereo not shown) [Example 7, 8-(4-Aminopiperidin-1-yl)-6-[(4-chlorophenyl)methyl]-2-(propan-2-yl)-2,6-dihydroimidazo[1,2-c]pyrido[2,3-e]pyrimidin-5(3H)-one]	6.19
3-tert-Butyl-6-[(4-chlorophenyl)methyl] -8-[4-(hydroxymethyl)piperidin-1-yl]pyrido[2,3-e][1,2,4]triazolo[4,3-c]pyrimidin-5(6H)-one [Example 41]	8.02
CC(C)C1C(=O)N=C2c3ncc(N4CCOCC4)cc3N(Cc3ccc(Cl)cc3)C(=O)N21 (single isomer, unassigned) [Example 23, (R or S)-6-[(4-Chlorophenyl)methyl]-8-(morpholin-4-yl)-3-(propan-2-yl)imidazo[1,2-c]pyrido[2,3-e]pyrimidine-2,5(3H,6H)-dione]	7.19
CC(C)(C)C1CN2C(=O)N(Cc3ccc(Cl)cc3)c3cc(N4CCOCC4)cnc3C2=N1 (stereo not shown) [Example 4, 2-tert-Butyl-6-(4-chlorobenzyl)-8-(morpholin-4-yl)-2,6-dihydroimidazo[1,2-c]pyrido[2,3-e]pyrimidin-5(3H)-one]	6.74
CC(C)C1C(=O)N=C2c3ncc(N4CCC(=O)CC4)cc3N(Cc3ccc(Cl)cc3)C(=O)N21 (stereo not shown) [Example 25, 6-[(4-Chlorophenyl)methyl]-8-(4-oxopiperidin-1-yl)-3-(propan-2-yl)imidazo[1,2-c]pyrido[2,3-e]pyrimidine-2,5(3H,6H)-dione]	6.91
CC(C)(CO)C1CN2C(=O)N(Cc3ccc(Cl)cc3)c3cc(N4CCOCC4)cnc3C2=N1 (stereo not shown) [Example 12, 6-(4-Chlorobenzyl)-2-(1-hydroxy-2-methylpropan-2-yl)-8-(morpholin-4-yl)-2,6-dihydroimidazo[1,2-c]pyrido[2,3-e]pyrimidin-5(3H)-one]	7.27
COc1ccc(CN2C(=O)N3CC(C(C)C)N=C3c3ncc(N4CCOCC4)cc32)nc1 (stereo not shown) [Example 14, 6-[(5-Methoxypyridin-2-yl)methyl]-8-(morpholin-4-yl)-2-(propan-2-yl)-2,6-dihydroimidazo[1,2-c]pyrido[2,3-e]pyrimidin-5(3H)-one]	6.09
CC(C)(C)Cc1nc2c3nnc(N4CCOCC4)cc3n(Cc3ccc(Cl)cc3)c(=O)n2n1 [Example 54, 5-[(4-Chlorophenyl)methyl]-9-(2,2-dimethylpropyl)-3-(morpholin-4-yl)[1,2,4]triazolo[1',5':1,6]pyrimido[5,4-c]pyridazin-6(5H)-one]	7.60
COc1cc(Cn2c(=O)n3c(C(C)(C)C)nnc3c3ncc(N4CCOCC4)cc32)ccc1F [Example 42, 3-tert-Butyl-6-[(4-fluoro-3-methoxyphenyl)methyl] -8-(morpholin-4-yl)pyrido[2,3-e][1,2,4]triazolo[4,3-c]pyrimidin-5(6H)-one]	5.93
COc1ccc(Cn2c(=O)n3c(C(C)(C)OC)nnc3c3ncc(N4CCOCC4)cc32)cc1 [Example 33, 6-(4-Methoxybenzyl)-3-(2-methoxypropan-2-yl)-8-(morpholin-4-yl)pyrido[2,3-e][1,2,4]triazolo[4,3-c]pyrimidin-5(6H)-one]	6.52
CC(C)C1C(=O)N=C2c3ncc(N4CCOCC4)cc3N(Cc3ccc(Cl)cc3)C(=O)N21 (single isomer, unassigned) [Example 24, (S or R)-6-[(4-Chlorophenyl)methyl]-8-(morpholin-4-yl)-3-(propan-2-yl)imidazo[1,2-c]pyrido[2,3-e]pyrimidine-2,5(3H,6H)-dione]	7.25
CC(C)C1CN=C2c3ncc(N4CCOCC4)cc3N(Cc3ccc(Cl)cc3)C(=O)N21 (stereo not shown) [Example 1, 6-(4-Chlorobenzyl)-8-(morpholin-4-yl)-3-(propan-2-yl)-2,6-dihydroimidazo[1,2-c]pyrido[2,3-e]pyrimidin-5(3H)-one]	6.15
COc1ccc(Cn2c(=O)n3c(C(C)(C)C)nnc3c3ncc(N4CCC(OC)CC4)cc32)cc1 [Example 37, 3-tert-Butyl-6-[(4-methoxyphenyl)methyl] -8-(4-methoxypiperidin-1-yl)pyrido[2,3-e][1,2,4]triazolo[4,3-c]pyrimidin-5(6H)-one]	6.47
COC(C)(C)c1nnc2c3nnc(N4CCN(C(C)=O)CC4)cc3n(Cc3ccc(Cl)cc3)c(=O)n12 [Example 47, 8-(4-Acetylpiperazin-1-yl) -6-[(4-chlorophenyl)methyl]-3-(2-methoxypropan-2-yl)[1,2,4]triazolo[4',3': 1,6]pyrimido[5,4-c]pyridazin-5(6H)-one]	6.62
COc1ccc(Cn2c(=O)n3c(C(C)(C)C)nnc3c3ncc(N4CCC(N)CC4)cc32)cc1 [Example 40, 8-(4-Aminopiperidin-1-yl)-3-tert-butyl-6-[(4-methoxyphenyl)methyl]pyrido[2,3-e][1,2,4]triazolo[4,3-c]pyrimidin-5(6H)-one]	6.31
